Laboratory results published in the NIST ThermoML archive (doi:10.1021/acs.jced.9b00074).
Numbers after ± are expanded uncertainties.

Settings: 100 kPa, Liquid; for viscosity: Falling or rolling sphere viscometry; for mass density: Vibrating tube method

Row | SMILES | viscosity (293.15 K) [mPa·s] | mass density (293.15 K) [kg/m3] | viscosity (298.15 K) [mPa·s] | mass density (298.15 K) [kg/m3] | viscosity (303.15 K) [mPa·s] | mass density (303.15 K) [kg/m3] | viscosity (308.15 K) [mPa·s] | mass density (308.15 K) [kg/m3] | viscosity (313.15 K) [mPa·s] | mass density (313.15 K) [kg/m3] | viscosity (318.15 K) [mPa·s] | mass density (318.15 K) [kg/m3] | viscosity (323.15 K) [mPa·s] | mass density (323.15 K) [kg/m3] | viscosity (328.15 K) [mPa·s] | mass density (328.15 K) [kg/m3] | viscosity (333.15 K) [mPa·s] | mass density (333.15 K) [kg/m3]
1 | CC12CC3CC(C1)CC(C)(C3)C2 [1,3-dimethyladamantane] | 3.75 ± 0.08 | 901.57 ± 0.55 | 3.34 ± 0.071 | 898 ± 0.54 | 2.997 ± 0.064 | 894.43 ± 0.54 | 2.702 ± 0.057 | 890.86 ± 0.54 | 2.45 ± 0.052 | 887.29 ± 0.54 | 2.231 ± 0.047 | 883.71 ± 0.54 | 2.039 ± 0.043 | 880.13 ± 0.53 | 1.871 ± 0.04 | 876.55 ± 0.53 | 1.722 ± 0.037 | 872.96 ± 0.53
2 | OC1CCCC1 [cyclopentanol] | 11.72 ± 0.25 | 947.04 ± 0.57 | 9.6 ± 0.2 | 943.08 ± 0.57 | 7.891 ± 0.17 | 939.08 ± 0.57 | 6.564 ± 0.14 | 935.03 ± 0.56 | 5.509 ± 0.12 | 930.92 ± 0.56 | 4.657 ± 0.099 | 926.76 ± 0.56 | 3.97 ± 0.084 | 922.53 ± 0.56 | 3.409 ± 0.072 | 918.24 ± 0.55 | 2.945 ± 0.063 | 913.89 ± 0.55
3 | C1C[C@@H]2[C@H]3CC[C@H](C3)[C@@H]2C1 [exo-tetrahydrodicyclopentadiene] | 3.017 ± 0.068 | 935.88 ± 0.7 | 2.731 ± 0.061 | 932 ± 0.69 | 2.488 ± 0.056 | 928.08 ± 0.69 | 2.273 ± 0.051 | 924.16 ± 0.69 | 2.087 ± 0.047 | 920.24 ± 0.68 | 1.922 ± 0.043 | 916.31 ± 0.68 | 1.776 ± 0.04 | 912.38 ± 0.68 | 1.646 ± 0.037 | 908.44 ± 0.68 | 1.53 ± 0.034 | 904.5 ± 0.67
